Patent US20250339517A1, “LIPID N[…]” (priority 2022, published 2025)

Test system: F9A6-CD4 T cell hybridoma overlaid on M. tuberculosis-infected macrophages
Experiment: Ex vivo MTB Ag85B antigen presentation to CD4 T cells (IL-2 ELISA)
Assay type: cell-based, human
Conditions: concurrent activation; decrease for MO-TDM compared to TDM and MO
Description: Briefly, M. tuberculosis-infected MΦs were washed after a 4-hour infection and overlaid with the F9A6-CD4 T cell hybridoma which recognizes an Ag85B epitope in the context of human HLA-DR1. IL-2 secreted from hybridoma T cells or other cytokines secreted from M. tuberculosis-infected MΦs were determined using a sandwich ELISA kit (Biolegend).
By inhibiting the phagosome lysosome fusion in macrophages, TDM not only protects the M. tuberculosis bacilli from intracellular killing but also reduces the priming of T cells due to reduced processing of Mycobacterial antigens in lysosomal compartments. Since increased killing of intracellular MTB in macrophages was observed when they were stimulated with a cubosomal MO-TDM (1 mol %) preparation, it indicated a possible increase in lysosmal processing of its antigens. […] An in vitro antigen presentation assay using a CD4 hybridoma T cell that recognizes a specific epitope of Ag85B was adopted to determine the priming of T cells by macrophages that were stimulated with MO, TDM and MO-TDM (1 mol %). Secreted levels of IL-2 by hybridoma T cells upon overlay to M. tuberculosis infected macrophages with and without stimulation with MO, TDM and MO-TDM (1 mol %) were monitored in a time dependent manner (FIG. 9).

**Q.** How did the “antigen presentation to T cells (secreted IL-2 levels), change from day 3 to day 5 post infection” value turn out when trehalose 6,6′ dimycolate [TDM] was run?
**A.** decreased sharply
